How the values were obtained:
Experiment in all cases: NCI five-dose SRB growth assay
Format in all cases: cell-based
SF-539 = conditions: Homo sapiens; SF-539 (CNS Cancer), 48 h
ACHN = conditions: Homo sapiens; ACHN (Renal Cancer), 48 h
HL-60(TB) = conditions: Homo sapiens; HL-60(TB) (Leukemia), 48 h
NCI-H522 = conditions: Homo sapiens; NCI-H522 (Non-Small Cell Lung Cancer), 48 h
SF-268 = conditions: Homo sapiens; SF-268 (CNS Cancer), 48 h
LOX IMVI = conditions: Homo sapiens; LOX IMVI (Melanoma), 48 h
MALME-3M = conditions: Homo sapiens; MALME-3M (Melanoma), 48 h
UACC-62 = conditions: Homo sapiens; UACC-62 (Melanoma), 48 h
KM12 = conditions: Homo sapiens; KM12 (Colon Cancer), 48 h
HT29 = conditions: Homo sapiens, HT-29; HT29 (Colon Cancer), 48 h
SNB-19 = conditions: Homo sapiens; SNB-19 (CNS Cancer), 48 h
U251 = conditions: Homo sapiens, U-251; U251 (CNS Cancer), 48 h
SK-MEL-28 = conditions: Homo sapiens; SK-MEL-28 (Melanoma), 48 h
COLO 205 = conditions: Homo sapiens; COLO 205 (Colon Cancer), 48 h
K-562 = conditions: Homo sapiens, K562; K-562 (Leukemia), 48 h
HS 578T = conditions: Homo sapiens; HS 578T (Breast Cancer), 48 h
DU-145 = conditions: Homo sapiens; DU-145 (Prostate Cancer), 48 h
CCRF-CEM = conditions: Homo sapiens; CCRF-CEM (Leukemia), 48 h
NCI-H460 = conditions: Homo sapiens; NCI-H460 (Non-Small Cell Lung Cancer), 48 h
UO-31 = conditions: Homo sapiens; UO-31 (Renal Cancer), 48 h
HCT-15 = conditions: Homo sapiens; HCT-15 (Colon Cancer), 48 h
786-0 = conditions: Homo sapiens; 786-0 (Renal Cancer), 48 h
SN12C = conditions: Homo sapiens; SN12C (Renal Cancer), 48 h
SW-620 = conditions: Homo sapiens; SW-620 (Colon Cancer), 48 h
MDA-MB-468 = conditions: Homo sapiens; MDA-MB-468 (Breast Cancer), 48 h
M14 = conditions: Homo sapiens; M14 (Melanoma), 48 h
HCT-116 = conditions: Homo sapiens; HCT-116 (Colon Cancer), 48 h
NCI/ADR-RES = conditions: Homo sapiens; NCI/ADR-RES (Ovarian Cancer), 48 h
BT-549 = conditions: Homo sapiens; BT-549 (Breast Cancer), 48 h
PC-3 = conditions: Homo sapiens; PC-3 (Prostate Cancer), 48 h
NCI-H23 = conditions: Homo sapiens; NCI-H23 (Non-Small Cell Lung Cancer), 48 h
NCI-H322M = conditions: Homo sapiens; NCI-H322M (Non-Small Cell Lung Cancer), 48 h
PRMI-8226 = conditions: Homo sapiens; PRMI-8226 (Leukemia), 48 h
HOP-92 = conditions: Homo sapiens; HOP-92 (Non-Small Cell Lung Cancer), 48 h
TK-10 = conditions: Homo sapiens; TK-10 (Renal Cancer), 48 h
MDA-MB-231/ATCC = conditions: Homo sapiens; MDA-MB-231/ATCC (Breast Cancer), 48 h
IGROV1 = conditions: Homo sapiens, IGROV-1; IGROV1 (Ovarian Cancer), 48 h
SK-OV-3 = conditions: Homo sapiens; SK-OV-3 (Ovarian Cancer), 48 h
SNB-75 = conditions: Homo sapiens; SNB-75 (CNS Cancer), 48 h

SMILES	GI50 (SF-539)	GI50 (ACHN)	GI50 (NCI-H522)	GI50 (SF-268)	GI50 (LOX IMVI)	GI50 (UACC-62)	GI50 (KM12)	GI50 (HT29)	GI50 (SNB-19)	GI50 (U251)	GI50 (COLO 205)	GI50 (HS 578T)	GI50 (DU-145)	GI50 (CCRF-CEM)	GI50 (NCI-H460)	GI50 (UO-31)	GI50 (HCT-15)	GI50 (786-0)	GI50 (SN12C)	GI50 (SW-620)	other results
O=C(O)c1cn(C2CC2)c2cc(N3CCN(S(=O)(=O)c4ccc(Cl)c(Cl)c4)CC3)c(F)cc2c1=O [Compound 3b]	3390 nM	3100 nM	1990 nM	4770 nM	1440 nM	1750 nM	3620 nM	3770 nM	3250 nM	3330 nM	3500 nM	4260 nM	4310 nM	2610 nM	3660 nM	2580 nM	3300 nM	4020 nM	2970 nM	4050 nM	GI50 (HL-60(TB)): 2040 nM; GI50 (MALME-3M): 2300 nM; GI50 (SK-MEL-28): 2670 nM; GI50 (K-562): 3920 nM; GI50 (MDA-MB-468): 2250 nM; GI50 (M14): 4060 nM; GI50 (HCT-116): 3860 nM; GI50 (NCI/ADR-RES): 4010 nM; GI50 (BT-549): 2980 nM; GI50 (PC-3): 2460 nM; GI50 (NCI-H23): 2900 nM; GI50 (NCI-H322M): 3240 nM; GI50 (PRMI-8226): 2530 nM; GI50 (HOP-92): 1540 nM; GI50 (TK-10): 4310 nM; GI50 (MDA-MB-231/ATCC): 2140 nM; GI50 (IGROV1): 2730 nM
CCn1cc(C(=O)O)c(=O)c2cc(F)c(N3CCN(S(=O)(=O)c4ccc(Cl)cc4)CC3)cc21 [Compound 1a]	4120 nM	3090 nM	1730 nM	3850 nM	2400 nM	2020 nM	4070 nM	2640 nM	3970 nM	3100 nM	2620 nM	4520 nM	4110 nM	2930 nM	3160 nM	2070 nM	3620 nM	3770 nM	2920 nM	3430 nM	GI50 (HL-60(TB)): 2180 nM; GI50 (MALME-3M): 1990 nM; GI50 (SK-OV-3): 3280 nM; GI50 (SK-MEL-28): 4880 nM; GI50 (K-562): 2910 nM; GI50 (SNB-75): 2600 nM; GI50 (MDA-MB-468): 2100 nM; GI50 (M14): 2850 nM; GI50 (HCT-116): 3180 nM; GI50 (NCI/ADR-RES): 2980 nM; GI50 (BT-549): 2440 nM; GI50 (PC-3): 2310 nM; GI50 (NCI-H23): 2670 nM; GI50 (PRMI-8226): 3080 nM; GI50 (TK-10): 3730 nM; GI50 (MDA-MB-231/ATCC): 2510 nM; GI50 (IGROV1): 3140 nM
Cc1cc(C)c(S(=O)(=O)N2CCN(c3cc4c(cc3F)c(=O)c(C(=O)O)cn4C3CC3)CC2)c(C)c1 [Compound 6b]	3140 nM	2460 nM	2800 nM	3960 nM	1420 nM	2430 nM	3380 nM	3150 nM	2560 nM	2890 nM	3400 nM	2400 nM	3400 nM	2800 nM	3040 nM	1960 nM	2550 nM	4080 nM	2610 nM	3400 nM	GI50 (SK-OV-3): 3020 nM; GI50 (SNB-75): 2230 nM; GI50 (MDA-MB-468): 1970 nM; GI50 (M14): 4690 nM; GI50 (HCT-116): 2980 nM; GI50 (NCI/ADR-RES): 3290 nM; GI50 (BT-549): 3340 nM; GI50 (NCI-H23): 3410 nM; GI50 (NCI-H322M): 5190 nM; GI50 (PRMI-8226): 2340 nM; GI50 (HOP-92): 1520 nM; GI50 (TK-10): 4570 nM; GI50 (MDA-MB-231/ATCC): 2030 nM; GI50 (IGROV1): 2660 nM
CCn1cc(C(=O)O)c(=O)c2cc(F)c(N3CCN(S(=O)(=O)c4ccc(Cl)cc4Cl)CC3)cc21 [Compound 2a]	1920 nM	2620 nM	1810 nM	3860 nM	1480 nM	1610 nM	3420 nM	3630 nM	3070 nM	3300 nM	2440 nM	2530 nM	2810 nM	3030 nM	3130 nM	2200 nM	2820 nM	3190 nM	2770 nM	3910 nM	GI50 (HL-60(TB)): 2220 nM; GI50 (MALME-3M): 1950 nM; GI50 (SK-OV-3): 3000 nM; GI50 (SK-MEL-28): 3210 nM; GI50 (K-562): 4000 nM; GI50 (MDA-MB-468): 1980 nM; GI50 (M14): 3240 nM; GI50 (HCT-116): 3560 nM; GI50 (NCI/ADR-RES): 3280 nM; GI50 (BT-549): 2640 nM; GI50 (PC-3): 2430 nM; GI50 (NCI-H23): 2330 nM; GI50 (NCI-H322M): 2860 nM; GI50 (PRMI-8226): 2550 nM; GI50 (HOP-92): 1220 nM; GI50 (TK-10): 4020 nM; GI50 (MDA-MB-231/ATCC): 1880 nM; GI50 (IGROV1): 2330 nM

Source: EP2987533B1, “7-substituted piperazin-1-yl fluoroquinolone compounds, their use in the treatment of cancer, pharmaceutical compositions and a method for preparation” (priority 2014, dated 2016)
